This is an account of results in patent US20240294542A1, “NLRP3 INFLAMMASOME INHIBITOR AND APPLICATION THEREOF” (TransThera Sciences (Nanjing), Inc., priority 2021, published 2024).

The assay deals with NLRP3 inflammasomes. Description: Inhibitory activity against NLRP3 inflammasome in THP-1 cells (LPS/nigericin stimulation, IL-1β ELISA). Format: cell-based. As to conditions: PMA-differentiated THP-1 cells; LPS 500 ng/mL 3 h, compound 1 h, nigericin 10 μg/mL 30 min; human IL-1β in supernatant by Elisa; read-out: IC50 (nM), inhibitory activities against NLRP3 in THP-1 cells. As to the method: Test Samples: The compounds of the present invention prepared according to exemplary methods.
THP-1 is Immortalized Human Macrophage Cell Line
• Test instrument: microplate reader (made from PE)
• 1. […] Culture plate coating: 100 μL polylysine solution was added into a 96-well cell culture plate, and the reaction was carried out at 37° C. for 30 min. The solution was discarded, and PBS was washed twice for later use. • 3. […] The resulting mixture was uniformly mixed, and finally diluted by 1:1000 times, and the cells were placed in a carbon dioxide cell incubator at 37° C. and cultured for 1 h. • c. Nigericin was added to each well at a final concentration of 10 μg/mL, and the plate was placed in a carbon dioxide cell incubator at 37° C. and cultured for 30 min. • d. The media in wells were transferred to a new culture plate, and then the plate was centrifuged at 3000 rpm for 5 min. Then the supernatant was transferred to a new 96-well plate. • e. The collected cell culture supernatant samples were tested for the content of human IL-1β by using a commercial Elisa kit, as specified in the instructions.
One may read the IC50 as the concentration that gives 50% inhibition. In the case of `CN1CCC[C@@H](Nc2nnc(-c3ccc(F)cc3O)c3c2CCCC3)C1` [Compound 24a, (R)-5-fluoro-2-(4-((1-methylpiperidin-3-yl)amino)-5,6,7,8-tetrahydrophthalazin-1-yl)phenol], the IC50 came out at 1 nM.
`CN1CCC[C@@H](Nc2nnc(-c3ccc(Cl)cc3O)c3ccccc23)C1` [Compound 101, (R)-5-chloro-2-(4-((1-methylpiperidin-3-yl)amino)phthalazin-1-yl)phenol]: the IC50 amounted to 5 nM.
As for `Cc1ccc(-c2nnc(N[C@@H]3CCCN(C)C3)c3cnccc23)c(O)c1` [Compound 50, (R)-5-methyl-2-(4-((1-methylpiperidin-3-yl)amino)pyrido[3,4-d]pyridazin-1-yl)phenol], the IC50 came out at 1 nM.
To `C[C@]1(O)C[C@@H](Nc2nnc(-c3ccc(C#N)cc3O)c3ccccc23)C1` [Compound 116, 3-hydroxy-4-(4-(((cis)-3-hydroxy-3-methylcyclobutyl)amino)phthalazin-1-yl)benzonitrile] belongs 21 nM; to `N#Cc1ccc(-c2nnc(N[C@@H]3CCCN(C4CCOCC4)C3)c3ccccc23)c(O)c1` [Compound 124, (R)-3-hydroxy-4-(4-((1-(tetrahydro-2H-pyran-4-yl)piperidin-3-yl)amino)phthalazin-1-yl)benzonitrile], 5 nM; to `CN1C[C@H](F)C[C@@H](Nc2nnc(-c3ccc(C#N)cc3O)c3ccccc23)C1` [Compound 123, 4-(4-(((3R,5R)-5-fluoro-1-methylpiperidin-3-yl)amino)phthalazin-1-yl)-3-hydroxybenzonitrile], 6 nM.
Next, `Cc1ccc2c(-c3ccc(Br)cc3O)nnc(N[C@@H]3CCCN(C)C3)c2c1` [Compound 88, (R)-5-bromo-2-(6-methyl-4-((1-methylpiperidin-3-yl)amino)phthalazin-1-yl)phenol]: 1 nM; `CN1CCC[C@@H](Nc2nnc(-c3ccc(C#N)cc3O)c3ccccc23)C1` [Compound 42, (R)-3-hydroxy-4-(4-((1-methylpiperidin-3-yl)amino)phthalazin-1-yl)benzonitrile]: 13 nM; `Cc1ccc(-c2nnc(N[C@@H]3CCCN(C)C3)c3c(C)cccc23)c(O)c1` [Compound 5, (R)-5-methyl-2-(5-methyl-4-((1-methylpiperidin-3-yl)amino)phthalazin-1-yl)phenol]: 14 nM.
With `Cc1ccc(-c2nnc(N[C@@H]3CCCN(C)C3)c3ccccc23)c(O)c1` [Compound 1, (R)-5-methyl-2-(4-((1-methylpiperidin-3-yl)amino)phthalazin-1-yl)phenol], the IC50 is 1.8 nM.
To `Cc1ccc(-c2nnc(N[C@@H]3CCCN(C)C3)c3c2CCCC3)c(O)c1` [Compound 1a, (R)-5-methyl-2-(4-((1-methylpiperidin-3-yl)amino)-5,6,7,8-tetrahydrophthalazin-1-yl)phenol] belongs 7 nM.
With `CN1CCC[C@@H](Nc2nnc(-c3ccc(C(F)F)cc3O)c3c2CCCC3)C1` [Compound 15a, (R)-5-(difluoromethyl)-2-(4-((1-methylpiperidin-3-yl)amino)-5,6,7,8-tetrahydrophthalazin-1-yl)phenol], the IC50 turned out to be 2 nM.
Next, `Cc1ccc(-c2nnc(N[C@@H]3CCCN(C)C3)c3cc(C4CC4)ccc23)c(O)c1` [Compound 32, (R)-2-(6-cyclopropyl-4-((1-methylpiperidin-3-yl)amino)phthalazin-1-yl)-5-methylphenol]: 15 nM; `CN1CCC[C@@H](Nc2nnc(-c3ccc(Br)cc3O)c3ccccc23)C1` [Compound 73, (R)-5-bromo-2-(4-((1-methylpiperidin-3-yl)amino)phthalazin-1-yl)phenol]: 1 nM; `Cc1ccc(-c2nnc(N[C@@H]3CCCN(C)C3)c3cc(Br)ccc23)c(O)c1` [Compound 60, (R)-2-(6-bromo-4-((1-methylpiperidin-3-yl)amino)phthalazin-1-yl)-5-methylphenol]: 13 nM.
Next, `C[C@]1(O)C[C@@H](Nc2nnc(-c3ccc(C(F)(F)F)cc3O)c3ccccc23)C1` [Compound 129, 2-(4-(((cis)-3-hydroxy-3-methylcyclobutyl)amino)phthalazin-1-yl)-5-(trifluoromethyl)phenol]: 4 nM.
For the compound `Cc1ccc(-c2nnc(N[C@@H]3CCCN(C)C3)c3cc(F)ccc23)c(O)c1` [Compound 8, (R)-2-(6-fluoro-4-((1-methylpiperidin-3-yl)amino)phthalazin-1-yl)-5-methylphenol], the IC50 came to 3 nM.
To `CN1CCC[C@@H](Nc2nnc(-c3ccc(C4CC4)cc3O)c3ccncc23)C1` [Compound 95, (R)-5-cyclopropyl-2-(4-((1-methylpiperidin-3-yl)amino)pyrido[3,4-d]pyridazin-1-yl)phenol] belongs 1 nM; to `CN1CCC[C@@H](Nc2nnc(-c3ccc(C4CC4)cc3O)c3c2CCCC3)C1` [Compound 5a, (R)-5-cyclopropyl-2-(4-((1-methylpiperidin-3-yl)amino)-5,6,7,8-tetrahydrophthalazin-1-yl)phenol], 5 nM; to `Cc1ccc(-c2nnc(N[C@@H]3CCCN(C)C3)c3cc(C)ccc23)c(O)c1` [Compound 4, (R)-5-methyl-2-(6-methyl-4-((1-methylpiperidin-3-yl)amino)phthalazin-1-yl)phenol], 9 nM.
Regarding `CN1CCC[C@@H](Nc2nnc(-c3ccc(C#N)cc3O)c3ccncc23)C1` [Compound 79, (R)-3-hydroxy-4-(4-((1-methylpiperidin-3-yl)amino)pyrido[3,4-d]pyridazin-1-yl)benzonitrile], the IC50 came out at 13 nM.
To `Cc1ccc(-c2nnc(N[C@@H]3CCCN(C)C3)c3c(Br)cccc23)c(O)c1` [Compound 34, (R)-2-(5-bromo-4-((1-methylpiperidin-3-yl)amino)phthalazin-1-yl)-5-methylphenol] belongs 8 nM.
